Laboratory results from publication PMC2956480, “A bivalent glycopeptide to target two putative carbohydrate binding sites on FimH” (Beilstein Journal of Organic Chemistry, 2010).
Where two headings read alike, the source gives them in different places. Marks after values point to notes of the source that are not given here.

Legend:
[1] = tested on: type 1 fimbriated E. coli (HB101pPKL4); FimH-mediated binding to mannan; test: ELISA, inhibition of mannose-specific type 1 fimbriated E. coli adhesion to mannan-coated microtiter plates; format: cell-based
Procedure: The synthesis of the bivalent glycopeptide 1 was not optimized in order to improve all the individual yields, because it has been the primary goal of this study to test the anti-adhesive properties of this type of ligand. An ELISA was performed as reported earlier, employing type 1 fimbriated E. coli bacteria and mannan-coated microtiter plates. In this assay a mannosidic ligand competes with the polysaccharide mannan adsorbed on a polystyrene microtiter plate for FimH-mediated binding to the type 1 fimbriated bacteria. The inhibitory ligand is employed in serial dilutions. This leads to inhibition curves, from which IC50-values can be deduced. The IC50-values reﬂect the inhibitor concentration that causes 50% inhibition of bacterial binding to mannan. […] Here, RIPs were based on the IC50-value determined for MeMan on the same plate, which was defined as IP ≡ 1. […]
An ELISA protocol was used to determine the IC50-value of the bivalent target glycopeptide 1 in comparison with monovalent reference ligands, employing mannan-coated microtiter plates and type 1 fimbriated E. coli (HB101pPKL4) as described earlier Optical densities (ODs) were measured on an AMP 400 COM ELISA reader at 405 nm (reference wavelength 492 nm). The percentage inhibition was calculated as {[OD(nI)-OD(I)] × 100 × [OD(nI)]^−1} (nI: no inhibitor, I: with inhibitor). […]

[2] = tested on: type 1 fimbriated E. coli (HB101pPKL4); FimH-mediated binding to mannan; details: relative to MeMan, IP(MeMan) ≡ 1; ELISA, as reported earlier; ref 34 (DubberMSperlingOLindhorstT KOrg Biomol Chem2006439013912); cited from earlier work
Description: Table 1 Inhibitory potencies in mannose-specific E. coli adhesion of the bivalent glycopeptide 1 in comparison with reference ligands, as determined by ELISA. IC50-values are average values from three independent assays. S: standard deviation; RIP: relative inhibitory potency based on methyl α-D-mannopyranoside (MeMan) with IP(MeMan) ≡ 1.

SMILES | IC50 ([1]; mannan from Saccharomyces cerversiae coated (1 mg × ml^−1, 50 mM aq Na2CO3, pH 9.6), type 1 fimbriated E. coli (HB101pPKL4), OD at 405 nm (reference 492 nm), inhibitor in serial dilutions, sigmoidal fit, average values from three independent assays, S (in parentheses): standard deviation, read-out: IC50 (inhibitor concentration that causes 50% inhibition of bacterial binding to mannan)) | RIP (relative inhibitory potency) ([1]; relative to IC50 of MeMan on the same plate, IP(MeMan) ≡ 1, type 1 fimbriated E. coli on mannan) | RIP (relative inhibitory potency) [2]
CO[C@H]1O[C@H](CO)[C@@H](O)[C@H](O)[C@@H]1O [MeMan, methyl α-D-mannopyranoside] | 2.9 mM | 1 | –
C=CCO[C@H]1O[C@H](CO)[C@@H](O)[C@H](O[C@H]2O[C@H](CO)[C@@H](O)[C@H](O)[C@@H]2O)[C@@H]1O [allyl Man(1,3)Man, allyl 3-O-α-D-mannosyl-α-D-mannoside] | – | – | 7^a
C=CCO[C@H]1O[C@H](CO[C@H]2O[C@H](CO)[C@@H](O)[C@H](O)[C@@H]2O)[C@@H](O)[C@H](O[C@H]2O[C@H](CO)[C@@H](O)[C@H](O)[C@@H]2O)[C@@H]1O [allyl Man(1,3)[Man(1,6)]Man, allyl 3,6-di-O-(α-D-mannosyl)-α-D-mannoside] | – | – | 20^a
C=CCO[C@H]1O[C@H](CO[C@H]2O[C@H](CO)[C@@H](O)[C@H](O)[C@@H]2O)[C@@H](O)[C@H](O)[C@@H]1O [allyl Man(1,6)Man, allyl 6-O-α-D-mannosyl-α-D-mannoside] | – | – | 0.5^a
